Data on five compounds can be found in BindingDB's records for doi:10.3109/14756366.2010.510471 (Suven Life Sciences, 2011).

The target of experiment [1] is 5-hydroxytryptamine receptor 6 (Homo sapiens, UniProt P50406). In words: Radioligand Binding Assay. The conditions noted are these: pH 7.4; 37 °C. The procedure: Briefly, receptor source and radioligand used were human recombinant expressed in HEK-293 cells and [3H] LSD (60–80 Ci/mmol), respectively. The final ligand concentration was 1.5 nM and non-specific determinant was methiothepin mesylate (0.1 μM). The reference compound and positive control was methiothepin mesylate. Reactions were carried out in 50 mM TRISHCl (pH 7.4) containing 10 mM MgCl2, 0.5 mM EDTA for 60 min at 37 °C. The reaction was terminated by rapid vacuum filtration onto glass fibre filters.
5-hydroxytryptamine receptor 6, sequence (P50406 whole entry): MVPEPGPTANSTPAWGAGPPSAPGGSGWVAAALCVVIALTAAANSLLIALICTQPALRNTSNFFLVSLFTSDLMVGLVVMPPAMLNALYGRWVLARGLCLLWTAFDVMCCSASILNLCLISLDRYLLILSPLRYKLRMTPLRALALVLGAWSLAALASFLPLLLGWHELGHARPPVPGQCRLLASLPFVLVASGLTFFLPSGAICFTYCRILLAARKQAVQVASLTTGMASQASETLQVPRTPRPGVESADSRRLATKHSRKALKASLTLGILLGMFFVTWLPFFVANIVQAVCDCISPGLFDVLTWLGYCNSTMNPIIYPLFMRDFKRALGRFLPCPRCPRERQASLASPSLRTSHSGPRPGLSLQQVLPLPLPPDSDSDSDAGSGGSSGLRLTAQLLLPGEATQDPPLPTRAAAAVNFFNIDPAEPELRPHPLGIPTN

Another experiment deals with Cytochrome P450 2D6 (Homo sapiens, UniProt P10635). In words: Isoform-Selective Assay. As for the experimental part:
(§1) The cytochrome P450 inhibitory potential was determined using isoform-selective assays and heterologously expressed human CYP2D6 and CYP3A4.

The target in a further experiment is Cytochrome P450 3A4 (Homo sapiens, UniProt P08684). Nature of the experiment: Isoform-Selective Assay. As for the experimental part:
as §1

Structures are written as SMILES. Bounds are passed on as bounds.

Cytochrome P450 3A4, sequence (P08684 whole entry, canonical isoform): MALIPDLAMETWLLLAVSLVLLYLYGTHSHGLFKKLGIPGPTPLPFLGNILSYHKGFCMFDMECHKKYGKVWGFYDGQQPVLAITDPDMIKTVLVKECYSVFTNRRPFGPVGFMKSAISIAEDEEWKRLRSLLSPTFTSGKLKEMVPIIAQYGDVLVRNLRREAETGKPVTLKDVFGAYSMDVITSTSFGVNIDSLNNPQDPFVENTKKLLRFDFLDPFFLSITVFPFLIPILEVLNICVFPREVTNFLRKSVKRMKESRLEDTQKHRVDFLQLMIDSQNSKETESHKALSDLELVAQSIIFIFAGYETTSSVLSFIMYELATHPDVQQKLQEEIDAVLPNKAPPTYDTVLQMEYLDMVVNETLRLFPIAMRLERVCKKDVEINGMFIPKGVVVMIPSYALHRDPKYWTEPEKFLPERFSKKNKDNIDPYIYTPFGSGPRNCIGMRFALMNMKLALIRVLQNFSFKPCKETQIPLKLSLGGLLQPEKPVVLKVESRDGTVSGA
Cytochrome P450 2D6, sequence (P10635 whole entry, canonical isoform): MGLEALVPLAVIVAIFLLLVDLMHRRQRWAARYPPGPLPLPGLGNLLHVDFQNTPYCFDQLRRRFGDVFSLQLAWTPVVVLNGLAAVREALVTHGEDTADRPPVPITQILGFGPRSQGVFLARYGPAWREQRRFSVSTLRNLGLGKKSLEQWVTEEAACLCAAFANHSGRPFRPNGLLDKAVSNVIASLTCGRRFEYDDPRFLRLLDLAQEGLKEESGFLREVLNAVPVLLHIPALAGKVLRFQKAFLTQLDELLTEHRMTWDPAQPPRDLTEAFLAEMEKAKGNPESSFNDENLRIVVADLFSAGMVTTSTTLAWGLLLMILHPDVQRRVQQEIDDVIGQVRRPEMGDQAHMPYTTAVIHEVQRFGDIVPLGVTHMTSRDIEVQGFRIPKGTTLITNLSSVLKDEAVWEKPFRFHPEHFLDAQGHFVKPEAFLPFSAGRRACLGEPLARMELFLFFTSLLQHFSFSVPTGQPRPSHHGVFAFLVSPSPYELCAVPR

As for `CN(C)CCOc1c2n(c3cccc(F)c13)S(=O)(=O)c1ccccc1-2` [1-Fluoro-10-(2-N,N-Dimethylaminoethoxy)-5-Thia-4-b-azaindeno [2,1-a]indene-5,5-Dioxide (8o)], in experiment [1], the Ki (commonly a dissociation constant, usually derived from enzyme kinetics or from competition with a known ligand) is more than 0.5 µM.

In turn, `CN(C)CCOc1c2n(c3ccc(Cl)cc13)S(=O)(=O)c1ccccc1-2` [2-Chloro-10-(2-N,N-Dimethylaminoethoxy)-5-Thia-4-b-azaindeno[2,1-a]indene-5,5-Dioxide (8c)] registered an inhibition constant Ki in experiment [1] of 0.464 µM.

In experiment [1], `COc1ccc2c(c1)c(OCCN(C)C)c1n2S(=O)(=O)c2ccccc2-1` [2-Methoxy-10-(2-N,N-Dimethylaminoethoxy)-5-Thia-4b-azaindeno[2,1-a]indene-5,5-Dioxide (8d)] showed a Ki of 0.127 µM.

As to `CN(C)CCOc1c2n(c3ccccc13)S(=O)(=O)c1ccccc1-2` [10-(2-N,N-Dimethylaminoethoxy)-5-Thia-4-b-azaindeno[2,1-a]indene-5,5-Dioxide (8a)], the 50% inhibitory concentration (IC50) (usually the concentration at which inhibition is half-maximal) against Cytochrome P450 2D6 is 7.65 µM; on Cytochrome P450 3A4 it was more than 45 µM.

For `CN(C)CCOc1c2n(c3cc(Cl)ccc13)S(=O)(=O)c1ccccc1-2` [3-Chloro-10-(2-N,N-Dimethylaminoethoxy)-5-Thia-4-b-azaindeno (8b)], the IC50 amounted to 5.06 µM at Cytochrome P450 2D6 and 37.1 µM on Cytochrome P450 3A4.
